# Measured values reported in patent US8834899B2, “Photodynamic therapy-generated mesothelioma vaccine” (The Trustees of the University of Pennsylvania, priority 2006, dated 2014).
# Test system: AB1 murine mesothelioma cells
# Test: Clonogenic assay after Photofrin PDT
# Type: cell-based
# Conditions: for % Cell Kill / Clonogenic Results (colonies) / Clonogenic Results, Averaged numbers: Photofrin 24 hours
# Procedure: Initial tests were conducted in order to explore the possibility of generating inactivated whole tumor cells from PDT. Three variables were manipulated: Photofrin® incubation time, Photofrin® dosage, and light dosage. Since Photofrin® incubation times may determine cellular uptake—either just within the membrane or further into the cytoplasm—the cells were incubated for either 3-hours or 24-hours, followed by a 3-hour incubation in drug-free media. Second, cells were given a Photofrin dose of either 10 μg/mL or 25 μg/mL. Dosages were determined by consulting both past papers and another PDT research laboratory. Lastly, light dosage was varied. The light source was a Laserscope KTP/YAG laser with a 630 nm Dye Module. […] Laser light dosage was measured in fluence or j/cm^2. Light dosages ranged from 0.125 j/cm^2 to 1.0 j/cm^2.
# Later in the study, dose-response curves followed by clonogenic assays, were performed in order to determine appropriate PDT light dosages for complete cell killing. In these tests, cells were incubated for 24-hours and exposed to high light dosages ranging from 1.0 j/cm^2 to 3.0 j/cm^2. The clonogenic assay measured cell plating efficiency and proliferation and involved plating cells at very low concentrations. After one week, resultant colonies that had formed were counted and compared against controls that had not been lit.
# All three factors were modified with the intent of producing complete cell death. Cells were incubated in 25 μg/mL of Photofrin® for 3 hours and lit with 2.0 j/cm^2 of light at 630 nm. […] A clonogenic assay was performed to explore the dose-response relationship at this level of light, and the results are summarized in Table 2. For the assay, cells were incubated in 25 μg/mL of Photofrin® for 24 hours and lit with 1.0 to 3.0 j/cm^2 of light. […] After this test, PDT vaccines were generated by incubating cells in 25 μg/mL of Photofrin® for 24 hours and lit with 3.0 j/cm^2 of light.
# [1] = 250 cells per plate, 1.5 j/cm^2
# [2] = 500 cells per plate, 1.0 j/cm^2
# [3] = 500 cells per plate, 1.5 j/cm^2
# [4] = 500 cells per plate, 2.0 j/cm^2
# [5] = 500 cells per plate, 2.0 j/cm^2 (100 mill), lit at high cell concentration
# [6] = 500 cells per plate, 2.5 j/cm^2
# [7] = 500 cells per plate, 3.0 j/cm^2
# [8] = 500 cells per plate, 3.0 j/cm^2 (100 mill), lit at high cell concentration
# [9] = 1000 cells per plate, 1.0 j/cm^2
# [10] = 1000 cells per plate, 1.5 j/cm^2
# [11] = 1000 cells per plate, 2.0 j/cm^2
# [12] = 1000 cells per plate, 2.0 j/cm^2 (100 mill), lit at high cell concentration
# [13] = 1000 cells per plate, 2.5 j/cm^2
# [14] = 1000 cells per plate, 3.0 j/cm^2
# [15] = 1000 cells per plate, 3.0 j/cm^2 (100 mill), lit at high cell concentration
substance,measurement,setting,value
Photofrin,cell kill in clonogenic assay (in words),"25 μg/mL Photofrin 24 hours, all conditions, light 1.0 to 3.0 j/cm^2 at 630 nm",nearly complete cell kill in all conditions
same,% Cell Kill,[1],100%
same,Clonogenic Results (colonies),[1],0
same,"Clonogenic Results, Averaged numbers",[1],0.00
same,% Cell Kill,[2],100%
same,Clonogenic Results (colonies),[2],0
same,"Clonogenic Results, Averaged numbers",[2],0.00
same,% Cell Kill,[3],100%
same,Clonogenic Results (colonies),[3],0
same,"Clonogenic Results, Averaged numbers",[3],0.00
same,% Cell Kill,[4],100%
same,Clonogenic Results (colonies),[4],0
same,"Clonogenic Results, Averaged numbers",[4],0.00
same,% Cell Kill,[5],100%
same,Clonogenic Results (colonies),[5],0
same,"Clonogenic Results, Averaged numbers",[5],0
same,% Cell Kill,[6],100%
same,Clonogenic Results (colonies),[6],0
same,"Clonogenic Results, Averaged numbers",[6],0
same,% Cell Kill,[7],100%
same,Clonogenic Results (colonies),[7],0
same,"Clonogenic Results, Averaged numbers",[7],0
same,% Cell Kill,[8],99.67%
same,"Clonogenic Results, Averaged numbers",[8],0.33
same,% Cell Kill,[9],99.85%
same,"Clonogenic Results, Averaged numbers",[9],0.33
same,% Cell Kill,[10],100.00%
same,Clonogenic Results (colonies),[10],0
same,"Clonogenic Results, Averaged numbers",[10],0.00
same,% Cell Kill,[11],99.85%
same,"Clonogenic Results, Averaged numbers",[11],0.33
same,% Cell Kill,[12],100%
same,Clonogenic Results (colonies),[12],0
same,"Clonogenic Results, Averaged numbers",[12],0
same,% Cell Kill,[13],100%
same,Clonogenic Results (colonies),[13],0
same,"Clonogenic Results, Averaged numbers",[13],0
same,% Cell Kill,[14],100%
same,Clonogenic Results (colonies),[14],0
same,"Clonogenic Results, Averaged numbers",[14],0
same,% Cell Kill,[15],99.70%
same,"Clonogenic Results, Averaged numbers",[15],0.67
